According to the NIST ThermoML archive (doi:10.1016/j.fluid.2018.08.017):
Numbers after ± are expanded uncertainties.

Experiments:
[1] = Liquid; for speed of sound: Single path-length method; for mass density: Vibrating tube method
[2] = refractive index (Na D-line) (dimensionless); details: 101.33 kPa, Liquid, Standard Abbe refractometry
[3] = wn = mass fraction of the nth substance listed; details: 101 kPa, Liquid, w1 = 1; for speed of sound: Single path-length method; for mass density: Vibrating tube method

CCCCn1cc[n+](C)c1.F[B-](F)(F)F [1-butyl-3-methylimidazolium tetrafluoroborate]
viscosity ([1]; 293.15 K, 101 kPa): 129.34 ± 13 mPa·s
speed of sound ([1]; 293.15 K, 101 kPa): 1576.7 ± 2.1 m/s
mass density ([1]; 293.15 K, 101 kPa): 1206 ± 1.3 kg/m3
viscosity ([1]; 298.15 K, 101 kPa): 98.95 ± 6.9 mPa·s
speed of sound ([1]; 298.15 K, 101 kPa): 1564.7 ± 2.1 m/s
mass density ([1]; 298.15 K, 101 kPa): 1202.4 ± 1.3 kg/m3
viscosity ([1]; 303.15 K, 101 kPa): 77 ± 3.5 mPa·s
speed of sound ([1]; 303.15 K, 101 kPa): 1552.8 ± 2.1 m/s
mass density ([1]; 303.15 K, 101 kPa): 1198.8 ± 1.3 kg/m3
viscosity ([1]; 308.15 K, 101 kPa): 60.9 ± 1.4 mPa·s
speed of sound ([1]; 308.15 K, 101 kPa): 1541.2 ± 2.1 m/s
mass density ([1]; 308.15 K, 101 kPa): 1195.2 ± 1.3 kg/m3
viscosity ([1]; 313.15 K, 101 kPa): 49.2 ± 1.3 mPa·s
speed of sound ([1]; 313.15 K, 101 kPa): 1529.6 ± 2.1 m/s
mass density ([1]; 313.15 K, 101 kPa): 1191.7 ± 1.3 kg/m3
viscosity ([1]; 318.15 K, 101 kPa): 40.27 ± 1 mPa·s
speed of sound ([1]; 318.15 K, 101 kPa): 1518.2 ± 2.1 m/s
mass density ([1]; 318.15 K, 101 kPa): 1188.1 ± 1.2 kg/m3
mass density ([1]; 318.15 K, 101.33 kPa): 1188.2 ± 1.2 kg/m3
viscosity ([1]; 323.15 K, 101 kPa): 33.44 ± 0.85 mPa·s
speed of sound ([1]; 323.15 K, 101 kPa): 1506.9 ± 2.1 m/s
mass density ([1]; 323.15 K, 101 kPa): 1184.6 ± 1.2 kg/m3
viscosity ([1]; 328.15 K, 101 kPa): 28.12 ± 0.72 mPa·s
speed of sound ([1]; 328.15 K, 101 kPa): 1495.7 ± 2.1 m/s
mass density ([1]; 328.15 K, 101 kPa): 1181.1 ± 1.2 kg/m3
viscosity ([1]; 333.15 K, 101 kPa): 23.94 ± 0.61 mPa·s
speed of sound ([1]; 333.15 K, 101 kPa): 1484.5 ± 2.1 m/s
mass density ([1]; 333.15 K, 101 kPa): 1177.6 ± 1.2 kg/m3
viscosity ([1]; 338.15 K, 101 kPa): 20.62 ± 0.53 mPa·s
speed of sound ([1]; 338.15 K, 101 kPa): 1473.2 ± 2.1 m/s
mass density ([1]; 338.15 K, 101 kPa): 1174.2 ± 1.2 kg/m3
viscosity ([1]; 343.15 K, 101 kPa): 17.92 ± 0.46 mPa·s
speed of sound ([1]; 343.15 K, 101 kPa): 1461.7 ± 2.1 m/s
mass density ([1]; 343.15 K, 101 kPa): 1170.7 ± 1.2 kg/m3
refractive index ([2]; 293.15 K): 1.423 ± 0.001

CCCCn1cc[n+](C)c1.F[B-](F)(F)F [1-butyl-3-methylimidazolium tetrafluoroborate] + CN1CCCC1=O
speed of sound ([3]; 293.15 K): 1576.7 ± 2.1 m/s
mass density ([3]; 293.15 K): 1206 ± 1.3 kg/m3
viscosity ([3]; 293.15 K): 129.34 ± 13 mPa·s
speed of sound ([3]; 298.15 K): 1564.7 ± 2.1 m/s
mass density ([3]; 298.15 K): 1202.4 ± 1.3 kg/m3
viscosity ([3]; 298.15 K): 98.95 ± 6.9 mPa·s
speed of sound ([3]; 303.15 K): 1552.8 ± 2.1 m/s
mass density ([3]; 303.15 K): 1198.8 ± 1.3 kg/m3
viscosity ([3]; 303.15 K): 77 ± 3.5 mPa·s
speed of sound ([3]; 308.15 K): 1541.2 ± 2.1 m/s
mass density ([3]; 308.15 K): 1195.2 ± 1.3 kg/m3
viscosity ([3]; 308.15 K): 60.9 ± 1.4 mPa·s
speed of sound ([3]; 313.15 K): 1529.6 ± 2.1 m/s
mass density ([3]; 313.15 K): 1191.7 ± 1.3 kg/m3
viscosity ([3]; 313.15 K): 49.2 ± 1.3 mPa·s
speed of sound ([3]; 318.15 K): 1518.2 ± 2.1 m/s
mass density ([3]; 318.15 K): 1188.1 ± 1.2 kg/m3
viscosity ([3]; 318.15 K): 40.27 ± 1 mPa·s
speed of sound ([3]; 323.15 K): 1506.9 ± 2.1 m/s
mass density ([3]; 323.15 K): 1184.6 ± 1.2 kg/m3
viscosity ([3]; 323.15 K): 33.44 ± 0.85 mPa·s
speed of sound ([3]; 328.15 K): 1495.7 ± 2.1 m/s
mass density ([3]; 328.15 K): 1181.1 ± 1.2 kg/m3
viscosity ([3]; 328.15 K): 28.12 ± 0.72 mPa·s
speed of sound ([3]; 333.15 K): 1484.5 ± 2.1 m/s
mass density ([3]; 333.15 K): 1177.6 ± 1.2 kg/m3
viscosity ([3]; 333.15 K): 23.94 ± 0.61 mPa·s
speed of sound ([3]; 338.15 K): 1473.2 ± 2.1 m/s
mass density ([3]; 338.15 K): 1174.2 ± 1.2 kg/m3
viscosity ([3]; 338.15 K): 20.62 ± 0.53 mPa·s
speed of sound ([3]; 343.15 K): 1461.7 ± 2.1 m/s
mass density ([3]; 343.15 K): 1170.7 ± 1.2 kg/m3
viscosity ([3]; 343.15 K): 17.92 ± 0.46 mPa·s

CN1CCCC1=O [N-methylpyrrolidone]
viscosity ([1]; 293.15 K, 101 kPa): 1.786 ± 0.049 mPa·s
speed of sound ([1]; 293.15 K, 101 kPa): 1565.7 ± 0.9 m/s
mass density ([1]; 293.15 K, 101 kPa): 1034.1 ± 0.2 kg/m3
viscosity ([1]; 298.15 K, 101 kPa): 1.693 ± 0.047 mPa·s
speed of sound ([1]; 298.15 K, 101 kPa): 1546.1 ± 0.9 m/s
mass density ([1]; 298.15 K, 101 kPa): 1029.7 ± 0.2 kg/m3
viscosity ([1]; 303.15 K, 101 kPa): 1.564 ± 0.044 mPa·s
speed of sound ([1]; 303.15 K, 101 kPa): 1526.7 ± 0.9 m/s
mass density ([1]; 303.15 K, 101 kPa): 1025.2 ± 0.2 kg/m3
viscosity ([1]; 308.15 K, 101 kPa): 1.448 ± 0.042 mPa·s
speed of sound ([1]; 308.15 K, 101 kPa): 1507.5 ± 0.9 m/s
mass density ([1]; 308.15 K, 101 kPa): 1020.8 ± 0.2 kg/m3
viscosity ([1]; 313.15 K, 101 kPa): 1.346 ± 0.039 mPa·s
speed of sound ([1]; 313.15 K, 101 kPa): 1488.3 ± 0.9 m/s
mass density ([1]; 313.15 K, 101 kPa): 1016.3 ± 0.2 kg/m3
viscosity ([1]; 318.15 K, 101 kPa): 1.258 ± 0.037 mPa·s
speed of sound ([1]; 318.15 K, 101 kPa): 1469.2 ± 0.9 m/s
mass density ([1]; 318.15 K, 101 kPa): 1011.9 ± 0.2 kg/m3
viscosity ([1]; 323.15 K, 101 kPa): 1.176 ± 0.035 mPa·s
speed of sound ([1]; 323.15 K, 101 kPa): 1450.4 ± 0.9 m/s
mass density ([1]; 323.15 K, 101 kPa): 1007.4 ± 0.2 kg/m3
viscosity ([1]; 328.15 K, 101 kPa): 1.103 ± 0.033 mPa·s
speed of sound ([1]; 328.15 K, 101 kPa): 1431.4 ± 0.9 m/s
mass density ([1]; 328.15 K, 101 kPa): 1002.9 ± 0.2 kg/m3
viscosity ([1]; 333.15 K, 101 kPa): 1.037 ± 0.032 mPa·s
speed of sound ([1]; 333.15 K, 101 kPa): 1412.8 ± 0.9 m/s
mass density ([1]; 333.15 K, 101 kPa): 998.4 ± 0.2 kg/m3
viscosity ([1]; 338.15 K, 101 kPa): 0.9769 ± 0.03 mPa·s
speed of sound ([1]; 338.15 K, 101 kPa): 1394.4 ± 0.9 m/s
mass density ([1]; 338.15 K, 101 kPa): 993.9 ± 0.2 kg/m3
viscosity ([1]; 343.15 K, 101 kPa): 0.923 ± 0.029 mPa·s
speed of sound ([1]; 343.15 K, 101 kPa): 1376 ± 0.9 m/s
mass density ([1]; 343.15 K, 101 kPa): 989.4 ± 0.2 kg/m3
refractive index ([2]; 298.15 K): 1.469 ± 0.001

CCCCCC [hexane]
mass density ([1]; 313.15 K, 101.33 kPa): 641.2 ± 0.3 kg/m3
refractive index ([2]; 298.15 K): 1.372 ± 0.001
